Experimental data taken from patent US20200056988A1, “METHOD OF DETERMINING THE EFFICACY OF ANTIMICROBIALS” (Wisconsin Alumni Research Foundation, priority 2018, published 2020).

System: infection in critically ill and injured adult ICU subjects
Assay: Variation (standard deviation) of exhaled 13CO2/12CO2 breath delta value (BDV) as a marker of response to antimicrobial treatment
Format: in vivo, human
Conditions: single ICU subject of FIG. 15, BAL culture positive for Aspergillus fumigatus; cefuroxime days 1 through 7, cefepime added after day seven
Procedure: The study was conducted as a multi-center prospective study, at four academic research hospitals, to assess exhaled ^13CO2/^12CO2 BDV as an indicator of infection in 20 critically ill and injured adult ICU subjects. Critically ill adult ICU subjects who were not suspected of having an infection at the time of ICU admission were enrolled as study subjects.
Exhaled breath samples were collected upon subject enrollment and every four hours thereafter until the subject was discharged home, transferred to a general care unit/status, or after seven days of breath sample collection, whichever came first. Each sample was collected in four-hour intervals, calculated from the initial sample time, with a window of ±1 hour. Samples collected outside of the specified time interval were still analyzed. […]
Breath samples were shipped to a central laboratory (Isomark, LLC, Madison, Wis.) within 48 hours of final collection from each subject. The breath samples were analyzed using the Canary™ device. The ^13CO2/^12CO2 ratio of each sample was determined from direct measurement and calculated using Pee Dee Belemnite (PDB) as a standard reference: […]
where BDV is expressed as parts per mil (‰). […] The delta over baseline (DOB) was then calculated by subtracting the baseline sample from subsequent samples as described: […]

Row | Compound | mean variation of BDV
1 | CO/N=C(\C(=O)N[C@@H]1C(=O)N2C(C(=O)[O-])=C(C[N+]3(C)CCCC3)CS[C@H]12)c1csc(N)n1 [cefepime] | 0.37 ‰
2 | CO/N=C(\C(=O)N[C@@H]1C(=O)N2C(C(=O)O)=C(COC(N)=O)CS[C@H]12)c1ccco1 [cefuroxime] | 0.72 ‰
